From the supplement of paper PMC10307832

Key:
Assay in all cases: relative viability (nuclei count vs DMSO), 5 days (fraction); higher = more cells survive
HCC-827 = test system: HCC-827
Summary of the method: (§1)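 For relative viability, nuclei counts in treated wells were divided by those in vehicle wells. Lung cancer cell lines had been pin-tool dosed in 1536-well plates the day after seeding and cultured for 5 days, then fixed and stained in one step (final 0.05% Triton X-100, 1% formaldehyde, 1 ug/ml Hoechst) and imaged at 4×. Doses were one drug alone or a fixed anchor-drug dose plus five library-drug doses (not always all listed) in √10 steps, and values are duplicate-plate medians.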

NCI-H2405 = test system: NCI-H2405
Summary of the method: as §1

LU99A = test system: LU99A
Summary of the method: as §1

CAL-12T = test system: CAL-12T
Summary of the method: as §1

LXF-289 = test system: LXF-289
Summary of the method: as §1

HCC-15 = test system: HCC-15
Summary of the method: as §1

NCI-H1651 = test system: NCI-H1651
Summary of the method: as §1

BEN = test system: BEN
Summary of the method: as §1

NCI-H2228 = test system: NCI-H2228
Summary of the method: as §1

NCI-H1437 = test system: NCI-H1437
Summary of the method: as §1

COR-L 105 = test system: COR-L 105
Summary of the method: as §1

NCI-H1792 = test system: NCI-H1792
Summary of the method: as §1

HARA = test system: HARA
Summary of the method: as §1

LCLC-103H = test system: LCLC-103H
Summary of the method: as §1

H3255 = test system: H3255
Summary of the method: as §1

RERF-LC-KJ = test system: RERF-LC-KJ
Summary of the method: as §1

201T = test system: 201T
Summary of the method: as §1

NCI-H23 = test system: NCI-H23
Summary of the method: as §1

UMC-11 = test system: UMC-11
Summary of the method: as §1

LK-2 = test system: LK-2
Summary of the method: as §1

LC-2-ad = test system: LC-2-ad
Summary of the method: as §1

NCI-H322M = test system: NCI-H322M
Summary of the method: as §1

NCI-H2085 = test system: NCI-H2085
Summary of the method: as §1

O=c1[nH]c2ccccc2n1C1CCN(CCCC(c2ccc(F)cc2)c2ccc(F)cc2)CC1 [Pimozide] + C[C@]1(O)C[C@@H](c2nc(-c3ccc4ccc(-c5ccccc5)nc4c3)c3c(N)nccn32)C1 [Linsitinib] (partner 1 µM)
relative viability (HCC-827; first compound 0.253 µM): 0.986
relative viability (HCC-827; first compound 0.8 µM): 0.915
relative viability (HCC-827; first compound 2.53 µM): 0.944
relative viability (HCC-827; first compound 8 µM): 0.939
relative viability (NCI-H2405; first compound 0.08 µM): 0.888
relative viability (NCI-H2405; first compound 0.253 µM): 0.771
relative viability (NCI-H2405; first compound 0.8 µM): 0.876
relative viability (NCI-H2405; first compound 2.53 µM): 0.814
relative viability (NCI-H2405; first compound 8 µM): 0.7
relative viability (LU99A; first compound 0.08 µM): 0.544
relative viability (LU99A; first compound 0.253 µM): 0.409
relative viability (LU99A; first compound 0.8 µM): 0.514
relative viability (LU99A; first compound 2.53 µM): 0.596
relative viability (LU99A; first compound 8 µM): 0.504
relative viability (CAL-12T; first compound 0.08 µM): 0.745
relative viability (CAL-12T; first compound 0.253 µM): 0.803
relative viability (CAL-12T; first compound 0.8 µM): 0.936
relative viability (CAL-12T; first compound 2.53 µM): 0.755
relative viability (CAL-12T; first compound 8 µM): 0.788
relative viability (LXF-289; first compound 0.08 µM): 0.928
relative viability (LXF-289; first compound 0.253 µM): 0.902
relative viability (LXF-289; first compound 0.8 µM): 0.964
relative viability (LXF-289; first compound 2.53 µM): 0.946
relative viability (LXF-289; first compound 8 µM): 0.886
relative viability (HCC-15; first compound 0.08 µM): 0.91
relative viability (HCC-15; first compound 0.253 µM): 0.911
relative viability (HCC-15; first compound 0.8 µM): 0.847
relative viability (HCC-15; first compound 2.53 µM): 0.744
relative viability (HCC-15; first compound 8 µM): 0.796
relative viability (NCI-H1651; first compound 0.08 µM): 0.897
relative viability (NCI-H1651; first compound 0.253 µM): 1
relative viability (NCI-H1651; first compound 0.8 µM): 0.922
relative viability (NCI-H1651; first compound 2.53 µM): 0.97
relative viability (NCI-H1651; first compound 8 µM): 0.951
relative viability (BEN; first compound 0.08 µM): 1.07
relative viability (BEN; first compound 0.253 µM): 1.02
relative viability (BEN; first compound 0.8 µM): 0.856
relative viability (BEN; first compound 2.53 µM): 0.88
relative viability (BEN; first compound 8 µM): 0.892
relative viability (NCI-H2228; first compound 0.08 µM): 0.475
relative viability (NCI-H2228; first compound 0.253 µM): 0.909
relative viability (NCI-H2228; first compound 0.8 µM): 0.404
relative viability (NCI-H2228; first compound 2.53 µM): 0.392
relative viability (NCI-H2228; first compound 8 µM): 0.291
relative viability (NCI-H1437; first compound 0.08 µM): 1.09
relative viability (NCI-H1437; first compound 0.253 µM): 1.11
relative viability (NCI-H1437; first compound 0.8 µM): 0.932
relative viability (NCI-H1437; first compound 2.53 µM): 0.899
relative viability (NCI-H1437; first compound 8 µM): 0.893
relative viability (COR-L 105; first compound 0.253 µM): 1.01
relative viability (COR-L 105; first compound 0.8 µM): 0.795
relative viability (COR-L 105; first compound 2.53 µM): 0.844
relative viability (COR-L 105; first compound 8 µM): 0.562
relative viability (NCI-H1792; first compound 0.08 µM): 0.524
relative viability (NCI-H1792; first compound 0.253 µM): 0.495
relative viability (NCI-H1792; first compound 0.8 µM): 0.417
relative viability (NCI-H1792; first compound 2.53 µM): 0.444
relative viability (NCI-H1792; first compound 8 µM): 0.571
relative viability (HARA; first compound 0.08 µM): 0.944
relative viability (HARA; first compound 0.253 µM): 0.981
relative viability (HARA; first compound 0.8 µM): 0.823
relative viability (HARA; first compound 2.53 µM): 0.92
relative viability (HARA; first compound 8 µM): 0.748
relative viability (LCLC-103H; first compound 0.08 µM): 1.01
relative viability (LCLC-103H; first compound 0.253 µM): 1.02
relative viability (LCLC-103H; first compound 0.8 µM): 1
relative viability (LCLC-103H; first compound 2.53 µM): 1.07
relative viability (LCLC-103H; first compound 8 µM): 1.38
relative viability (H3255; first compound 0.253 µM): 0.905
relative viability (H3255; first compound 0.8 µM): 0.96
relative viability (H3255; first compound 2.53 µM): 0.959
relative viability (H3255; first compound 8 µM): 0.903
relative viability (RERF-LC-KJ; first compound 0.08 µM): 0.885
relative viability (RERF-LC-KJ; first compound 0.253 µM): 0.813
relative viability (RERF-LC-KJ; first compound 0.8 µM): 0.787
relative viability (RERF-LC-KJ; first compound 2.53 µM): 0.842
relative viability (RERF-LC-KJ; first compound 8 µM): 0.8
relative viability (201T; first compound 0.08 µM): 1
relative viability (201T; first compound 0.253 µM): 1.01
relative viability (201T; first compound 0.8 µM): 1
relative viability (201T; first compound 2.53 µM): 1.05
relative viability (201T; first compound 8 µM): 0.884
relative viability (NCI-H23; first compound 0.08 µM): 0.609
relative viability (NCI-H23; first compound 0.253 µM): 0.577
relative viability (NCI-H23; first compound 0.8 µM): 0.49
relative viability (NCI-H23; first compound 2.53 µM): 0.553
relative viability (NCI-H23; first compound 8 µM): 0.513
relative viability (UMC-11; first compound 0.08 µM): 1.02
relative viability (UMC-11; first compound 0.253 µM): 0.977
relative viability (UMC-11; first compound 0.8 µM): 1.05
relative viability (UMC-11; first compound 2.53 µM): 1.07
relative viability (UMC-11; first compound 8 µM): 1.09
relative viability (LK-2; first compound 0.08 µM): 0.52
relative viability (LK-2; first compound 0.253 µM): 0.543
relative viability (LK-2; first compound 0.8 µM): 0.493
relative viability (LK-2; first compound 2.53 µM): 0.37
relative viability (LK-2; first compound 8 µM): 0.371
relative viability (LC-2-ad; first compound 0.08 µM): 0.818
relative viability (LC-2-ad; first compound 0.253 µM): 0.819
relative viability (LC-2-ad; first compound 0.8 µM): 0.797
relative viability (LC-2-ad; first compound 2.53 µM): 0.891
relative viability (LC-2-ad; first compound 8 µM): 0.746
relative viability (NCI-H322M; first compound 0.253 µM): 0.875
relative viability (NCI-H322M; first compound 0.8 µM): 0.79
relative viability (NCI-H322M; first compound 2.53 µM): 0.834
relative viability (NCI-H322M; first compound 8 µM): 0.971
relative viability (NCI-H2085; first compound 0.08 µM): 0.916
relative viability (NCI-H2085; first compound 0.253 µM): 0.934
relative viability (NCI-H2085; first compound 0.8 µM): 0.818
relative viability (NCI-H2085; first compound 2.53 µM): 0.942
relative viability (NCI-H2085; first compound 8 µM): 0.762
